The results in this text go back to patent EP1462117A1, “Method for in vivo detection of antipsychotic properties of dopamine D3 receptor ligands” (priority 2003, dated 2004).

In general, half-life refers to how long it takes for the measured level to halve.

Where a name gives a salt, the structure may show the parent alone. Bounds are passed on as bounds.

Data set [1] has as its system Swiss mice. Kind of data set: MK-801 (dizocilpine)-induced and spontaneous locomotor activity, acute treatment, actimeter. Type of data set: in vivo. Here is the method: (§1) Male Swiss mice (Iffa Credo, France), weighing 25-30 g, were housed four per cage (25 × 15 × 13 cm), on a 12 hr/12 hr light/dark cycle (lights on at 07:00 a.m.), with food and water ad libitum. […] Experiments with D3R-deficient mice were performed on male homozygous mutant mice and their wild-type littermates. […] The mice used in the present study were backcrossed 7 to 8 times.
Haloperidol (Janssen Pharmaceuticals, Beerse, Belgium) and clozapine (Novartis, Basel, Switzerland) were dissolved in a few drops of hydrochloric acid and distilled water, and the pH of the solution was adjusted to pH 5 to 6 using NaOH. […] The compounds were injected i.p. in a volume of 5 ml/kg.
(§2) All experiments were conducted between 2.00 p.m. and 6.00 p.m., and the animals were kept in the test room at least 1 h before recording their activity. […] Counts for forward horizontal activity were incremented each time the animal moved from one-half part of the cage to the other, corresponding to disruption of two crossed parallel beams distant of 14 cm. In time-course studies, counts were summed every 5 min.
(§3) Between-group differences were analyzed with the Statistica™ software using two-way analysis of variance (ANOVA) and Least Significance Difference (LSD) post-hoc test. The analysis of data obtained with the same animals evaluated on several occasions (time-course experiments), between-within univariate or multivariate ANOVA for repeated measures were used (time being the repeated measure).
To assess simply the in vivo biological activity of the novel compound at the D3 receptor, the above described test, in which hyperlocomotion induced by low doses of dizocilpine is measured, was used.

Data set [2] deals with MPTP-intoxicated monkeys. Kind of data set: Levodopa-induced dyskinesia, PD-like symptoms and locomotor activity in MPTP-intoxicated monkeys.
The test system of data set [3] is Swiss mice. Kind of data set: Locomotor hyperactivity induced by continuous infusion of MK-801 (osmotic minipumps). The class given is in vivo. The method, then: Male Swiss mice (IFFA CREDO, France), weighing 26-28 g, were housed six per cage (25 × 15 ×13 cm), on a 12 h/12 h light/dark cycle (lights on at 07:00 a.m.), with food and water freely available. Room temperature ranged from 20° to 22°C and humidity varied between 55% and 65%.
(§4) Dizocilpine, as (+)-MK-801 maleate (Sigma), dissolved in 0.9% NaCl (saline), and its respective vehicle solution, was continuously infused via osmotic minipumps (Model 1007D, Alzet Corp.). Minipumps were filled 6 h prior to implantation and placed in a sterile saline water bath at 37°C. Taking into consideration the average weight of the mice at the time of testing, and the rate of the minipump delivery (specified by the manufacturer), the MK-801 concentration was adjusted to deliver 0.01 or 0.02 mg/kg/hr (0.48 mg/kg/day). Mice were anaesthetized with chloral hydrate (400 mg/kg i.p.), and an area on the back of the mice was shaved and cleaned with 70% ethanol. A small incision was made, a pocket beneath the skin was formed and the minipump was placed inside the pocket in each mouse. The incision was sutured, and cleaned with 70% ethanol. The mice were returned in their home cage and in about 2 h they had recovered and were active.
(§5) Once the minipumps implanted (Day 0), the locomotor activity was measured for 1h, at days 2, 4 and 7 in an actimeter (Imetronic, Pessac, France).
(§6) Between-group differences were analyzed with the Statistica™ software using two-way analysis of variance (ANOVA) and Least Significance Difference (LSD) post-hoc test. The analysis of data obtained with the same animals evaluated on several occasions (time-course experiments), between-within univariate or multivariate ANOVA for repeated measures were used (time being the repeated measure). Data from the resident-intruder assay were analyzed by analysis of variance (ANOVA), followed by a Tukey-Kramer Multiple Comparison post-hoc test.

The test system of data set [4] is D3 receptor gene-targeted (D3^-/-) mice. Description: Continuous MK-801 infusion in D3 receptor gene-targeted mice, locomotor activity. Type of data set: in vivo. Here is the method: as §4, with “A small incision was made, a pocket beneath the skin was formed and the minipump was placed inside the pocket in each mouse. The incision was sutured, and cleaned with 70% ethanol. The mice were returned in their home cage and in about 2 h they had recovered and were active.” left out
as §5, §6

The subject of data set [5] is D3 receptor-deficient mice (D3R^-/-). Description: MK-801-induced locomotor activity in D3 receptor-deficient mice. Type of data set: in vivo. The method, then:
as §1, §2
(§7) In addition, another experiment was performed with two groups of 8 mice of each genotype, injected with either saline or haloperidol (0.05 mg/kg).
as §3

Data set [6] has as its system MK-801-treated mice. Description: Resident-intruder assay in MK-801-treated mice. Particulars: MK-801 0.02 mg/kg/h for 7 days vs sham. The class given is in vivo. The method, then: Male mice were housed individually or in groups of five for at least 1 week prior to minipump implantation (Day 0), delivering MK-801 (0.02 mg/kg/h) or saline (Sham), and were tested at day 7. As described in Dixon et al. (1994), a group-housed male (intruder) was placed in the home cage of the individually housed male (resident), and their behaviors were video recorded for 5 min. […] The videotaped behaviors of the resident or intruder male were individually scored, by an experimenter unaware of the treatment group, for time spent in social investigation (approaching, sniffing, grooming other mouse, and sexual behavior), and in escape behavior (actively avoiding the unfamiliar congener). The scores for each behavior were subsequently averaged for each group.
as §6

The nature of data set [7]: Plasma concentrations in mice. Type of data set: in vivo. Particulars: dose inhibiting dizocilpine-induced hyperlocomotion.
A short description of data set [8]: Plasma concentrations in monkeys (radioreceptor assay). Type of data set: in vivo. Particulars: monkey; for time of maximal plasma concentration: in vivo; for half-life: plasma.
Data set [9] concerns Dopamine transporter. Description: Dopamine transporter binding in monkey striatum (autoradiography). More on the design: species or system Macaca fascicularis. The note with it: dorsolateral quadrant, rostral level.
For data set [10], the system named is wild-type (D3R^+/+) mice. Description: MK-801-induced locomotor activity in wild-type mice. The class given is in vivo. Particulars: haloperidol 0.05 mg/kg; MK-801 […]; D3R^+/+ mice. The method, then: Male Swiss mice (Iffa Credo, France), weighing 25-30 g, were housed four per cage (25 × 15 × 13 cm), on a 12 hr/12 hr light/dark cycle (lights on at 07:00 a.m.), with food and water ad libitum. […] Experiments with D3R-deficient mice were performed on male homozygous mutant mice and their wild-type littermates. […] Subsequently, these mice were backcrossed up to 8 times with C57BL6 mice. The mice used in the present study were backcrossed 7 to 8 times.
as §2, §7, §3

Where [11] appears, read: habituation phase, 30 min starting 5 min after injection, all doses tested.
Where [12] appears, read: chronic infusion through osmotic minipumps for 7 days.
[13] abbreviates: one monkey, nafadotride 1.0 mg/kg.
[14] abbreviates: same monkey, nafadotride 1.3 mg/kg.
The mark [15] stands for this setting: dyskinetic levodopa-treated MPTP-monkeys.
[16] abbreviates: non-dyskinetic levodopa-treated MPTP-monkeys.

`CN1CCN(C2=Nc3cc(Cl)ccc3Nc3ccccc32)CC1` [clozapine]: in [1] (setting [11]), the spontaneous activity result is “no effect”.

In [2] (dyskinetic monkeys under levodopa, parkinsonism corresponds to a score above 6), `N[C@@H](Cc1ccc(O)c(O)c1)C(=O)O` [levodopa] yielded a parkinsonian score of 0.2 ± 0.1. Also, the LID score in [2] (five out of nine levodopa-treated monkeys (severe LID), maximum of 4, levodopa 47 to 60 mg/kg twice daily for 6-8 months) is on record as 3.4 ± 0.1; in data set [2] (the four remaining levodopa-treated animals), < 0.4.

Turning to `C[C@]12N[C@H](Cc3ccccc31)c1ccccc12` [MK-801, (+)-5-methyl-10,11-dihydro-5H-dibenzo[a,d]cyclohepten-5,10-imine maleate], in data set [3] (setting [12]), the “duration of locomotor hyperactivity after cessation of the drug delivery” value is “at least 4 days” and the “time at which locomotor hyperactivity first appeared” value is listed as 7 days. For the same compound, the hypersensitivity to methamphetamine entry in data set [4] (MK-801 0.02 mg/kg/h during 7 days, methamphetamine 1 mg/kg i.p.) is “completely abolished”. In addition, in data set [4] (MK-801 0.02 mg/kg/h for 7 days), the “attenuation of MK-801-induced hyperactivity compared to wild-type (D3^+/+) mice” value is ~ 50%. In addition, in data set [5] (D3 receptor-deficient mice), the “MK-801-induced hyperactivity compared with wild-type littermates” value was “two to three times less”. Further, the “stimulatory effects of MK-801, genotype comparison” value in data set [5] (MK-801 0.3 mg/kg, D3R^+/+ vs D3R^-/- mice) is on record as “no significant differences”. Also, the “locomotor activity after injection of MK-801” value in [1] (MK-801 0.12 or 0.3 mg/kg i.p., after 30-min habituation) was “locomotor hyperactivity”. The “response induced by MK-801 at 0.3 mg/kg relative to […]” value in data set [1] (locomotor activity, i.p.) is reported as “about three”. In addition, in data set [6], the “Social investigations, effect of the MK-801 treatment” value is reported as “reduced” and the “escape behavior, effect of the MK-801 treatment” value is “enhancement of escape behavior”.

Take `O=C(/C=C/c1ccccc1)NCCCCN1CCc2ccccc2C1` [ST 198, (E)-N-(4-[1,2,3,4-tetrahydroisoquinolin-2-yl]-butyl)-3-phenylacrylamide]: in data set [7], the maximal plasma concentration is on record as 3.7 ± 0.2 µM. In data set [8], the “time of maximal plasma concentration” value came to 30 min and the half-life is ~30 min.

Turning to `CCCCN1CCCC1CNC(=O)c1cc(C#N)c2ccccc2c1OC` (stereo not shown) [nafadotride, N[(n-butyl-2-pyrrolidinyl)methyl]-1-methoxy-4-cyano naphtalene-2-carboxamide], in [8], the “time of maximal plasma concentration” value turned out to be 60 min and the half-life was ~50 min. In data set [5] (compound 1 mg/kg, MK-801 […], D3R^-/- mice), the “locomotor response to MK-801” value was “no longer able to inhibit”. In addition, the on-time duration result in data set [2] (from activity counts, threshold at 30% of the maximal activity, over 5 hr) is given as “markedly reduced”. In data set [2] (setting [13]), this compound returned an LID score of 0.5 and a PD-like symptoms score of 0. Moreover, in [2] (setting [14]), the “score of LID” value is 0.5 and the “score of PD-like symptoms” value was 4. For the same compound, the “locomotor activity (activity counts)” value in data set [2] (with levodopa) is listed as “strongly reduced”. Besides, in data set [2] (with levodopa, at first active dose, nafadotride on 3 out of 4 monkeys, ST 198 30-90 min after administration), the LID entry is given as “reduction of LID similar to that obtained with BP 897”.

With `CN1CC=C(c2ccccc2)CC1` [MPTP, 1-methyl-4-phenyl-1,2,3,6-tetrahydropyridine], the “decrease of DAT binding in Pu” value in [9] (MPTP-monkeys) is given as 97.1 ± 0.3%; in data set [9] (setting [15]), 95.0 ± 1.3%; in [9] (setting [16]) it was 97.0 ± 0.4%. Moreover, the “decrease of DAT binding in Cd” value in data set [9] (MPTP-monkeys, vs controls) amounted to 96.3 ± 0.3%; in data set [9] (setting [15]) it was 95.7 ± 0.8%; in data set [9] (setting [16]) it was 96.7 ± 0.4%.

With `O=C(CCCN1CCC(O)(c2ccc(Cl)cc2)CC1)c1ccc(F)cc1` [haloperidol], the MK-801-induced locomotor activity result in [10] is on record as “strongly inhibited”. For the same compound, the MK-801-induced hyperactivity entry is on record as “inhibited” in data set [3] (acute administration on the 10th day after minipump implantation, clozapine 1 mg/kg, haloperidol 0.3 mg/kg, BP 897 1 mg/kg); “significantly reduced” in data set [1] (compound 0.03 mg/kg i.p., MK-801 […], post-hoc vs saline); “significantly reduced” in data set [1] (compound 0.1 mg/kg i.p., MK-801 […], post-hoc vs saline); “significantly reduced” in [1] (compound 0.3 mg/kg i.p., MK-801 […], post-hoc vs saline). Besides, the spontaneous hyperactivity entry in data set [3] (subchronic treatment twice a day for 4.5 days from day 6, BP 897 1 mg/kg, haloperidol 0.3 mg/kg, recorded at least 6 hours after last administration) is reported as “reversed”. In data set [3] (subchronic treatment twice a day for 4.5 days from day 6, methamphetamine 1 mg/kg, recorded at least 6 hours after last administration), the methamphetamine-induced hyperactivity entry is reported as “reversed”. Besides, the “activity with MK-801” value in data set [1] (MK-801 […], 60 min, compound i.p. 0.1, 0.3, 1 mg/kg (haloperidol 0.03, 0.1, 0.3 mg/kg), overall dose-response) is “strongly and dose-dependently blocked”. The spontaneous activity entry is reported as “significantly reduced” in data set [1] (compound 0.3 mg/kg i.p., post-hoc vs saline) and “reduction of the spontaneous activity” in [1] (setting [11]).
